From US12624017B2, “Salt form of isoquinolinone type compound as rock inhibitor and preparation method therefor” (GUANGZHOU OCUSUN OPHTHALMIC BIOTECHNOLOGY CO., LTD., priority 2020, dated 2026)

Key:
Type in all cases: in vivo, New Zealand white rabbits
[1] = tested on: New Zealand rabbits suffered with acute intraocular hypertension; assay: Intraocular pressure reduction test in acute intraocular hypertension model; conditions: for Intraocular pressure in left eye: left eye (solvent only); for Intraocular pressure in right eye: 50 μL, right eye (modelled, dosed)
Excerpt: Acute intraocular hypertension was induced for rabbits by injection of a viscoelastic agent into the anterior chamber, and the effects of ocular pressure reduction of the compound of formula (I) were inspected by administration of eye drops at different concentrations.
Male New Zealand white rabbits, aged 97 to 127 days, weighted 2.5 to 3.4 kg, purchased from Pizhou Oriental Breeding Co., Ltd.
50 male New Zealand white rabbits were randomly divided into 5 groups according to body weight, 10 rabbits/group. The anterior chambers of the right eyes of animals in Groups 1 to 5 were injected with medical sodium hyaluronate gel in a single dose, 100 μL/eye, to induce ocular hypertension in the animals. In 5 to 15 min after molding, the right eye was administrated dropwise with the solvent, K-115, and the test article (compounds of formula (I) of different concentrations), and the left eye was administrated dropwise with the solvent, 50 μL/eye; and the intraocular pressures of the animals in both eyes were measured before administration, as well as at 2, 4, 6, 8, and 10 h after administration, respectively.

[2] = tested on: New Zealand rabbits with normal intraocular pressure; assay: Intraocular pressure reduction, normal intraocular pressure, Day 1 (Operation II); conditions: for Average intraocular pressure in both eyes: Day 1
Excerpt: An intraocular pressure reduction effect and potential ocular toxicity of the compound of formula (I) were inspected with rabbits with normal intraocular pressure by repeated administration of eye drops for 14 days.
Male New Zealand white rabbits, aged 97 to 127 days, weighted 2.6-3.5 kg, purchased from Pizhou Oriental Breeding Co., Ltd.
(§1) 42 male New Zealand white rabbits were randomly grouped into 7 groups according to body weights, 6 rabbits/group. Among the animals in Groups 1-7, the left eye was administrated dropwise with normal saline, and the right eye was administrated dropwise with a solvent/control/test article in an administration volume of 50 μL/eye respectively, once a day for 14 consecutive days, and the day of first administration was recorded as Day 1. The intraocular pressures of the animals were measured before administration on Day 1, as well as at 1 h, 2 h, 4 h, 6 h, 8 h and 10 h after administration on Day 1 (Table 10).

[3] = tested on: New Zealand rabbits with normal intraocular pressure; assay: Eye irritation response detection with hand-held slit lamp, 14 days eye drops; conditions: 0.25 to 4 mg/mL; 14 consecutive days; 50 μl/eye/day
Method: as §1
Animals were subjected to eye irritation response detection and fluorescein sodium detection (scored according to scoring criteria) in both eyes with a hand-held slit lamp before the start of test (Day −2/Day −1), before daily administration (Day 1 to Day 14), and at 1 h, 2 h, 4 h, 24 h, 48 h, and 72 h after the last administration (Day 14).
Animals were subjected to eye irritation response detection in both eyes with a handheld slit lamp on Day −2 to Day −1 before the start of test, before first administration every day (Day 1 to Day 14), and at 1 h, 2 h, 4 h, 24 h, 48 h, and 72 h after the last administration. The scoring criteria were as follows: […]

`Cc1ccc(C(=O)OCn2cc(C)c3c(S(=O)(=O)N4CC[C@H](N)C4)cccc3c2=O)c(C)c1` [Compound of formula (I)] was tested, and the “Intraocular pressure in left eye” value ([1]; 0.25 mg/mL group, 2 h after administration) was 6.07 mmHg, the “Intraocular pressure in left eye” value ([1]; 0.25 mg/mL group, 4 h after administration) was 6.60 mmHg and the “Intraocular pressure in left eye” value ([1]; 0.25 mg/mL group, 6 h after administration) was 9.10 mmHg. For the same molecule, the “Intraocular pressure in left eye” value ([1]; 0.25 mg/mL group, 8 h after administration) was 11.50 mmHg, the “Intraocular pressure in left eye” value ([1]; 0.25 mg/mL group, 10 h after administration) was 12.43 mmHg and the “Intraocular pressure in left eye” value ([1]; 0.25 mg/mL group, before administration) was 10.53 mmHg. For the same molecule, the “Intraocular pressure in right eye” value ([1]; 0.25 mg/mL, 2 h after administration) was 8.47 mmHg, the “Intraocular pressure in right eye” value ([1]; 0.25 mg/mL, 4 h after administration) was 8.60 mmHg and the “Intraocular pressure in right eye” value ([1]; 0.25 mg/mL, 6 h after administration) was 11.20 mmHg. For the same molecule, the “Intraocular pressure in right eye” value ([1]; 0.25 mg/mL, 8 h after administration) was 13.37 mmHg, the “Intraocular pressure in right eye” value ([1]; 0.25 mg/mL, 10 h after administration) was 13.10 mmHg and the “Intraocular pressure in right eye” value ([1]; 0.25 mg/mL, before administration) was 11.43 mmHg. For the same molecule, the “Intraocular pressure in left eye” value ([1]; 2.0 mg/mL group, 2 h after administration) was 6.60 mmHg, the “Intraocular pressure in left eye” value ([1]; 2.0 mg/mL group, 4 h after administration) was 7.04 mmHg and the “Intraocular pressure in left eye” value ([1]; 2.0 mg/mL group, 6 h after administration) was 11.23 mmHg. The “Intraocular pressure in left eye” value ([1]; 2.0 mg/mL group, 8 h after administration) was 12.84 mmHg, the “Intraocular pressure in left eye” value ([1]; 2.0 mg/mL group, 10 h after administration) was 13.10 mmHg and the “Intraocular pressure in left eye” value ([1]; 2.0 mg/mL group, before administration) was 11.27 mmHg. The “Intraocular pressure in right eye” value ([1]; 2.0 mg/mL, 2 h after administration) was 8.52 mmHg, the “Intraocular pressure in right eye” value ([1]; 2.0 mg/mL, 4 h after administration) was 11.56 mmHg and the “Intraocular pressure in right eye” value ([1]; 2.0 mg/mL, 6 h after administration) was 13.81 mmHg. For the same molecule, the “Intraocular pressure in right eye” value ([1]; 2.0 mg/mL, 8 h after administration) was 12.96 mmHg, the “Intraocular pressure in right eye” value ([1]; 2.0 mg/mL, 10 h after administration) was 11.96 mmHg and the “Intraocular pressure in right eye” value ([1]; 2.0 mg/mL, before administration) was 11.23 mmHg. The “Intraocular pressure in left eye” value ([1]; 8.0 mg/mL group, 2 h after administration) was 5.93 mmHg, the “Intraocular pressure in left eye” value ([1]; 8.0 mg/mL group, 4 h after administration) was 6.43 mmHg and the “Intraocular pressure in left eye” value ([1]; 8.0 mg/mL group, 6 h after administration) was 10.10 mmHg. The “Intraocular pressure in left eye” value ([1]; 8.0 mg/mL group, 8 h after administration) was 11.87 mmHg, the “Intraocular pressure in left eye” value ([1]; 8.0 mg/mL group, 10 h after administration) was 13.19 mmHg and the “Intraocular pressure in left eye” value ([1]; 8.0 mg/mL group, before administration) was 11.20 mmHg. The “Intraocular pressure in right eye” value ([1]; 8.0 mg/mL, 2 h after administration) was 7.40 mmHg, the “Intraocular pressure in right eye” value ([1]; 8.0 mg/mL, 4 h after administration) was 7.97 mmHg and the “Intraocular pressure in right eye” value ([1]; 8.0 mg/mL, 6 h after administration) was 8.84 mmHg. The “Intraocular pressure in right eye” value ([1]; 8.0 mg/mL, 8 h after administration) was 8.60 mmHg, the “Intraocular pressure in right eye” value ([1]; 8.0 mg/mL, 10 h after administration) was 8.78 mmHg and the “Intraocular pressure in right eye” value ([1]; 8.0 mg/mL, before administration) was 11.53 mmHg. The “Intraocular pressure reduction effect (conclusion)” value ([1]; at different test doses (0.25, 2.0, 8.0 mg/mL), amplitude and sustained effect better than K-115) was “good intraocular pressure reduction effects”, the “Average intraocular pressure in both eyes” value (“Average intraocular pressure” for short) ([2]; 0.25 mg/mL in right eye, 1 h after administration) was 6.22 mmHg and the “Average intraocular pressure” value ([2]; 0.25 mg/mL in right eye, 2 h after administration) was 6.17 mmHg. The “Average intraocular pressure” value ([2]; 0.25 mg/mL in right eye, 4 h after administration) was 6.67 mmHg, the “Average intraocular pressure” value ([2]; 0.25 mg/mL in right eye, 6 h after administration) was 8.06 mmHg and the “Average intraocular pressure” value ([2]; 0.25 mg/mL in right eye, 8 h after administration) was 9.72 mmHg. The “Average intraocular pressure” value ([2]; 0.25 mg/mL in right eye, 10 h after administration) was 10.95 mmHg, the “Average intraocular pressure” value ([2]; 0.25 mg/mL in right eye, before administration) was 9.84 mmHg and the “Average intraocular pressure” value ([2]; 0.5 mg/mL in right eye, 1 h after administration) was 5.39 mmHg. The “Average intraocular pressure” value ([2]; 0.5 mg/mL in right eye, 2 h after administration) was 5.50 mmHg, the “Average intraocular pressure” value ([2]; 0.5 mg/mL in right eye, 4 h after administration) was 6.95 mmHg and the “Average intraocular pressure” value ([2]; 0.5 mg/mL in right eye, 6 h after administration) was 8.94 mmHg. For the same molecule, the “Average intraocular pressure” value ([2]; 0.5 mg/mL in right eye, 8 h after administration) was 9.89 mmHg, the “Average intraocular pressure” value ([2]; 0.5 mg/mL in right eye, 10 h after administration) was 11.56 mmHg and the “Average intraocular pressure” value ([2]; 0.5 mg/mL in right eye, before administration) was 9.22 mmHg. For the same molecule, the “Average intraocular pressure” value ([2]; 1.0 mg/mL in right eye, 1 h after administration) was 5.56 mmHg, the “Average intraocular pressure” value ([2]; 1.0 mg/mL in right eye, 2 h after administration) was 5.39 mmHg and the “Average intraocular pressure” value ([2]; 1.0 mg/mL in right eye, 4 h after administration) was 6.67 mmHg. For the same molecule, the “Average intraocular pressure” value ([2]; 1.0 mg/mL in right eye, 6 h after administration) was 7.33 mmHg, the “Average intraocular pressure” value ([2]; 1.0 mg/mL in right eye, 8 h after administration) was 10.50 mmHg and the “Average intraocular pressure” value ([2]; 1.0 mg/mL in right eye, 10 h after administration) was 10.89 mmHg. For the same molecule, the “Average intraocular pressure” value ([2]; 1.0 mg/mL in right eye, before administration) was 9.17 mmHg, the “Average intraocular pressure” value ([2]; 2.0 mg/mL in right eye, 1 h after administration) was 8.11 mmHg and the “Average intraocular pressure” value ([2]; 2.0 mg/mL in right eye, 2 h after administration) was 5.84 mmHg. For the same molecule, the “Average intraocular pressure” value ([2]; 2.0 mg/mL in right eye, 4 h after administration) was 6.06 mmHg, the “Average intraocular pressure” value ([2]; 2.0 mg/mL in right eye, 6 h after administration) was 7.11 mmHg and the “Average intraocular pressure” value ([2]; 2.0 mg/mL in right eye, 8 h after administration) was 9.00 mmHg. The “Average intraocular pressure” value ([2]; 2.0 mg/mL in right eye, 10 h after administration) was 10.05 mmHg, the “Average intraocular pressure” value ([2]; 2.0 mg/mL in right eye, before administration) was 9.72 mmHg and the “Average intraocular pressure” value ([2]; 4.0 mg/mL in right eye, 1 h after administration) was 6.61 mmHg. The “Average intraocular pressure” value ([2]; 4.0 mg/mL in right eye, 2 h after administration) was 5.84 mmHg, the “Average intraocular pressure” value ([2]; 4.0 mg/mL in right eye, 4 h after administration) was 5.72 mmHg and the “Average intraocular pressure” value ([2]; 4.0 mg/mL in right eye, 6 h after administration) was 6.61 mmHg. The “Average intraocular pressure” value ([2]; 4.0 mg/mL in right eye, 8 h after administration) was 8.39 mmHg, the “Average intraocular pressure” value ([2]; 4.0 mg/mL in right eye, 10 h after administration) was 10.67 mmHg and the “Average intraocular pressure” value ([2]; 4.0 mg/mL in right eye, before administration) was 10.00 mmHg. For the same molecule, the “Efficacy of single administration (conclusion)” value ([2]; all tested doses (0.25 to 4.0 mg/mL), compared with K-115) was “better efficacy” and the “Eye irritation (conclusion)” value [3] was “no irritation”.
